Source: ChEMBL document CHEMBL2203074 (Bioorg Med Chem Lett, 2012)
Active and inactive are the calls of the source. No cut-off for these calls is given here.

How the values were obtained:
[1] = Inhibition of amyloid beta (1-42) aggregation at 20 uM after 48 hrs by thioflavin T fluorescence method relative to control
[2] = Antioxidant activity assessed as trolox equivalent of AAPH-induced radical scavenging activity incubated for 10 mins prior to APPH challenge measured every minute for 120 mins by ORAC assay; assay type: functional
SH-SY5Y [3] = experiment: Cytotoxicity against human SH-SY5Y cells assessed as cell viability at 60 uM after 48 hrs by MTT assay; assay type: cell-based
SH-SY5Y [4] = experiment: Neuroprotective activity in human SH-SY5Y cells assessed as decrease in tertiary butylhydroperoxide-induced radical formation incubated for 24 hrs prior to tertiary butylhydroperoxide challenge measured after 30 mins by DCFH-DA staining-based fluorescence assay; assay type: functional, cell-based
[5] = Inhibition of amyloid beta (1-42) aggregation at 20 uM after 24 hrs by transmission electron microscopy
SH-SY5Y [6] = experiment: Cytotoxicity against human SH-SY5Y cells assessed as cell viability at 12.5 to 25 uM after 48 hrs by MTT assay; assay type: cell-based
SH-SY5Y [7] = experiment: Neuroprotective activity in human SH-SY5Y cells assessed as decrease in tertiary butylhydroperoxide-induced radical formation at 10 uM incubated for 24 hrs prior to tertiary butylhydroperoxide challenge measured after 30 mins by DCFH-DA staining-based fluorescence assay; assay type: functional; design: scale not given: the % may be the effect or the level left
SH-SY5Y [8] = experiment: Cytotoxicity against human SH-SY5Y cells assessed as cell viability at 25 uM after 48 hrs by MTT assay; assay type: cell-based

Row | inhibition [1] [%] | SMILES | Activity [2] [equiv] | further results
1 | 59.4 | CN(C)c1ccccc1/C=C/c1cc(O)cc(O)c1 | 2.05 | 
2 | 43.6 | CC(C)(C)c1ccc(/C=C/c2cc(O)cc(O)c2)cc1 | 1.28 | 
3 | 64.8 | CCN(CC)c1ccc(/C=C/c2cc(O)cc(O)c2)cc1 | 3.31 | 
4 | 66.7 | CCCNc1ccc(/C=C/c2cc(O)cc(O)c2)cc1 | 4.33 | 
5 | 69.7 | Oc1ccc(/C=C/c2cc(O)cc(O)c2)cc1 [RESVERATROL] |  | Activity (SH-SY5Y [3]): Toxic; Activity (SH-SY5Y [4]): Dose-dependent effect; inhibition [5]: Active
6 | 69 | CCCN(CCC)c1ccc(/C=C/c2cc(O)cc(O)c2)cc1 | 2.37 | 
7 | 68.7 | Oc1cc(O)cc(/C=C/c2ccc(NC3CCCC3)cc2)c1 | 3.37 | 
8 | 25.2 | Oc1cc(O)cc(/C=C/c2ccc(Br)cc2)c1 | 2.33 | 
9 | 61.5 | CN(C)c1cccc(/C=C/c2cc(O)cc(O)c2)c1 | 3.93 | 
10 | 65.2 | CN(C)c1ccc(/C=C/c2cc(O)cc(O)c2)cc1 | 4.7 | Activity (SH-SY5Y [6]): Non-toxic
11 | 7.02 | COc1cc(/C=C/c2ccc(N(C)C)cc2)cc(OC)c1 | 3.46 | 
12 | 71.7 | CC(C)Nc1ccc(/C=C/c2cc(O)cc(O)c2)cc1 | 4.12 | Activity (SH-SY5Y [7]): 37%; Activity (SH-SY5Y [4]): Dose-dependent effect; inhibition [5]: Active; Activity (SH-SY5Y [6]): Non-toxic
13 | 65.5 | Oc1cc(O)cc(/C=C/c2ccc(NC3CCCCC3)cc2)c1 | 2.25 | 
14 | 68.6 | CCNc1ccc(/C=C/c2cc(O)cc(O)c2)cc1 | 5.19 | Activity (SH-SY5Y [8]): Toxic; Activity (SH-SY5Y [4]): Dose-dependent effect
15 | 63.7 | CNc1ccc(/C=C/c2cc(O)cc(O)c2)cc1 | 5.54 | Activity (SH-SY5Y [4]): Dose-dependent effect; Activity (SH-SY5Y [6]): Non-toxic
16 | 13.6 | Oc1cc(O)cc(/C=C/c2ccncc2)c1 | 1.71 | 
17 | 48.5 | CN(C)c1ccc(CCc2cc(O)cc(O)c2)cc1 | 5.21 | 
